Laboratory results published in ChEMBL document CHEMBL4507261, “Data for DCP probe A-192621” (2021).

Assays:
[1] = test system: Receptor-type tyrosine-protein kinase FLT3 (Homo sapiens), P36888 [UNDEFINED MUTATION]; details: Compound concentration 1000.0 nM
[2] = target: Serine/threonine-protein kinase TAO2 (Homo sapiens) (UniProt Q9UL54); details: Compound concentration 1000.0 nM
[3] = target: Serine/threonine-protein kinase 32C (Homo sapiens) (UniProt Q86UX6); details: Compound concentration 1000.0 nM
Sequence of Serine/threonine-protein kinase 32C (Homo sapiens) (Q86UX6 whole entry): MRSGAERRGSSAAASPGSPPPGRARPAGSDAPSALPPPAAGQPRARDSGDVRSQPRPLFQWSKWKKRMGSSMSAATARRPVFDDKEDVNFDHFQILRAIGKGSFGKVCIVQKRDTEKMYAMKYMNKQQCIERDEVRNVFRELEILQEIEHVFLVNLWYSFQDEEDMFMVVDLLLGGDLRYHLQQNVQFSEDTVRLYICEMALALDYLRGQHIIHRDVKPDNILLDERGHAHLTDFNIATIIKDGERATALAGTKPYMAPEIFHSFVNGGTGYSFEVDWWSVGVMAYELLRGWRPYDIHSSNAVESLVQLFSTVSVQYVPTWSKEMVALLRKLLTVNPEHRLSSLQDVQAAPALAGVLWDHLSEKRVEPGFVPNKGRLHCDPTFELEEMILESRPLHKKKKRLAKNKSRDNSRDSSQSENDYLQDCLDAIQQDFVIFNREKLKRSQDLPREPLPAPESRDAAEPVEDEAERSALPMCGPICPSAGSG

[4] = target: Mitogen-activated protein kinase kinase kinase 2 (Homo sapiens) (UniProt Q9Y2U5); details: Compound concentration 1000.0 nM
[5] = test system: Phosphatidylinositol 4,5-bisphosphate 3-kinase catalytic subunit alpha isoform (Homo sapiens), P42336 [E542K]; details: Compound concentration 1000.0 nM
Sequence of Phosphatidylinositol 4,5-bisphosphate 3-kinase catalytic subunit alpha isoform (Homo sapiens), P42336 [E542K] (P42336 whole entry E542K, canonical isoform): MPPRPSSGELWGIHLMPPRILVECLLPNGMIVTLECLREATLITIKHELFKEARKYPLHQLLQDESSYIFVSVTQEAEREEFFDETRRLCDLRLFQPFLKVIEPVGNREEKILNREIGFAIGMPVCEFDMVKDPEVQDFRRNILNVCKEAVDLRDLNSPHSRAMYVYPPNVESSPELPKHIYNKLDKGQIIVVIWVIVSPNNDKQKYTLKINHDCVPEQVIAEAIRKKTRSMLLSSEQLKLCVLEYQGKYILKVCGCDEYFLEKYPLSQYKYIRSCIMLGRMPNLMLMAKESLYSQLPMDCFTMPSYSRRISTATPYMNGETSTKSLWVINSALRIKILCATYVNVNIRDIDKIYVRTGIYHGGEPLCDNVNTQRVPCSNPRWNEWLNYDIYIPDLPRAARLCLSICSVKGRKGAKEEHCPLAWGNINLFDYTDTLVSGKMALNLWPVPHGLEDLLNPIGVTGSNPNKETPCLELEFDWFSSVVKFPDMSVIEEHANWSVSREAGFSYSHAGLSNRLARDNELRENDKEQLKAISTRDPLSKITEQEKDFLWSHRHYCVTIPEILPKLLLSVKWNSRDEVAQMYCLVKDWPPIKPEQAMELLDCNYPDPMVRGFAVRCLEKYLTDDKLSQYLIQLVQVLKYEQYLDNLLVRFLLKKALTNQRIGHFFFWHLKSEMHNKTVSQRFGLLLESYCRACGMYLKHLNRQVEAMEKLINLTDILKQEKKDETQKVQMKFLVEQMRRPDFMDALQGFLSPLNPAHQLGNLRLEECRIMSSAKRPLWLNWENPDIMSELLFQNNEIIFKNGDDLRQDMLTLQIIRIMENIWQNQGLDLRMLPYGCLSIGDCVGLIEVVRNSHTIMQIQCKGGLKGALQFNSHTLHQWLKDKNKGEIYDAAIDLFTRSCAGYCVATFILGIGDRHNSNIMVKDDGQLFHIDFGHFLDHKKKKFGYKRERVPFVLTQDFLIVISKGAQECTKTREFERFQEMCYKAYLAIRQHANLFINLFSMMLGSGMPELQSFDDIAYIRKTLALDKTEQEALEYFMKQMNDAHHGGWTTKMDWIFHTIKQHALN

[6] = target: Tyrosine-protein kinase Mer (Homo sapiens) (UniProt Q12866); details: Compound concentration 1000.0 nM
[7] = target: Serine/threonine-protein kinase 17B (Homo sapiens) (UniProt O94768); details: Compound concentration 1000.0 nM
[8] = target: Mitogen-activated protein kinase kinase kinase kinase 3 (Homo sapiens) (UniProt Q8IVH8); details: Compound concentration 1000.0 nM
Sequence of Mitogen-activated protein kinase kinase kinase kinase 3 (Homo sapiens) (Q8IVH8 whole entry): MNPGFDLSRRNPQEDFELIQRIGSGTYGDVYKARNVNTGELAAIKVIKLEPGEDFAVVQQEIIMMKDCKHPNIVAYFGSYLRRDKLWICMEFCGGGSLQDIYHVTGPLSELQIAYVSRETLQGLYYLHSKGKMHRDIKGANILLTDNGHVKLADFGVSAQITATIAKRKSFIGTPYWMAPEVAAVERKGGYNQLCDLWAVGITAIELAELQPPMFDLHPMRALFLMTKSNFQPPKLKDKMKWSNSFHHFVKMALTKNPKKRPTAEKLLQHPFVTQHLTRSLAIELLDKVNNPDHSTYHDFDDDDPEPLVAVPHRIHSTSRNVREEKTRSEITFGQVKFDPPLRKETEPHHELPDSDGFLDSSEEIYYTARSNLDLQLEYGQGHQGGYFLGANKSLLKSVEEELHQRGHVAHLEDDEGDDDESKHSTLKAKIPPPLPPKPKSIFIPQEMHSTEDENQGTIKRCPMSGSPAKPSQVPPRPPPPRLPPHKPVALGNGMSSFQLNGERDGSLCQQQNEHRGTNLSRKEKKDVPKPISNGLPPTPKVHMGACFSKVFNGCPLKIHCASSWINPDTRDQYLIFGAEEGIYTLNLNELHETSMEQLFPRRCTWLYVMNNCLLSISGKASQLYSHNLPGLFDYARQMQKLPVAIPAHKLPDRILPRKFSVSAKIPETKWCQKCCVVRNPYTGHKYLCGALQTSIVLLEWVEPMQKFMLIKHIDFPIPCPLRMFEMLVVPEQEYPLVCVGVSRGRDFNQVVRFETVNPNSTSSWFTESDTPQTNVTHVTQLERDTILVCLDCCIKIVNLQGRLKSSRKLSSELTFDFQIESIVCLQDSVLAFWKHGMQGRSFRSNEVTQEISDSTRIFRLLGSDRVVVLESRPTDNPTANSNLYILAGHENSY

[9] = target: Cyclin-dependent kinase-like 2 (Homo sapiens) (UniProt Q92772); details: Compound concentration 1000.0 nM
[10] = target: Serine/threonine-protein kinase LATS2 (Homo sapiens) (UniProt Q9NRM7); details: Compound concentration 1000.0 nM
[11] = test system: Tyrosine-protein kinase ABL1 (Homo sapiens), P00519 [Y253F]; details: Compound concentration 1000.0 nM
[12] = test system: Mast/stem cell growth factor receptor Kit (Homo sapiens), P10721 [A829P]; details: Compound concentration 1000.0 nM
[13] = target: Serine/threonine-protein kinase PAK 4 (Homo sapiens) (UniProt O96013); details: Compound concentration 1000.0 nM
[14] = target: Serine/threonine-protein kinase WNK4 (Homo sapiens) (UniProt Q96J92); details: Compound concentration 1000.0 nM
[15] = target: Serine/threonine-protein kinase Nek10 (Homo sapiens) (UniProt Q6ZWH5); details: Compound concentration 1000.0 nM
[16] = target: Ribosomal protein S6 kinase alpha-2 (Homo sapiens) (UniProt Q15349); details: Compound concentration 1000.0 nM
Sequence of Ribosomal protein S6 kinase alpha-2 (Homo sapiens) (Q15349 whole entry): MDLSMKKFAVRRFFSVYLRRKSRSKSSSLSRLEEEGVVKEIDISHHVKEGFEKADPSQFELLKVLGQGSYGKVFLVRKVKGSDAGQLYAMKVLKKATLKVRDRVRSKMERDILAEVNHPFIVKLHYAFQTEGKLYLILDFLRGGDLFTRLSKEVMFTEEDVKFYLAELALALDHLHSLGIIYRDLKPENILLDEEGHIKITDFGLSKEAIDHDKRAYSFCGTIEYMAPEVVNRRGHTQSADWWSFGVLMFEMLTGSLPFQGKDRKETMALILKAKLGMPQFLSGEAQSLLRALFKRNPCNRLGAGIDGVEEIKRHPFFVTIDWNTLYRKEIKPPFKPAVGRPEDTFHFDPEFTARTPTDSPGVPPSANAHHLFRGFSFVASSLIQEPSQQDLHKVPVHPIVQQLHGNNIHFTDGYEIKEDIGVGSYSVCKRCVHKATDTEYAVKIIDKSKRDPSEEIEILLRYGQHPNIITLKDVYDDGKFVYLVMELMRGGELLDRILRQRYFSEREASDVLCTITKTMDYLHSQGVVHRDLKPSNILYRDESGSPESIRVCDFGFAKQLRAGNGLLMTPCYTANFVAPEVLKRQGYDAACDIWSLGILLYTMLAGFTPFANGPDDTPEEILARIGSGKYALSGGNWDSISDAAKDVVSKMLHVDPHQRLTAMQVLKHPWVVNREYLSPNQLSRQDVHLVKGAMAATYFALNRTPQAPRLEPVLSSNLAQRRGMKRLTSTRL

[17] = target: Activated CDC42 kinase 1 (Homo sapiens) (UniProt Q07912); details: Compound concentration 1000.0 nM
[18] = target: Myosin light chain kinase 2, skeletal/cardiac muscle (Homo sapiens) (UniProt Q9H1R3); details: Compound concentration 1000.0 nM
[19] = target: T1, Muscarinic acetylcholine receptor M5 (Homo sapiens) (UniProt P08912); assay: M5 (h) Eurofins-Cerep binding assay; design: ligand concentration 0.3 nM; details: filed as antagonist, Compound concentration 10.0 uM
T1 sequence (whole entry): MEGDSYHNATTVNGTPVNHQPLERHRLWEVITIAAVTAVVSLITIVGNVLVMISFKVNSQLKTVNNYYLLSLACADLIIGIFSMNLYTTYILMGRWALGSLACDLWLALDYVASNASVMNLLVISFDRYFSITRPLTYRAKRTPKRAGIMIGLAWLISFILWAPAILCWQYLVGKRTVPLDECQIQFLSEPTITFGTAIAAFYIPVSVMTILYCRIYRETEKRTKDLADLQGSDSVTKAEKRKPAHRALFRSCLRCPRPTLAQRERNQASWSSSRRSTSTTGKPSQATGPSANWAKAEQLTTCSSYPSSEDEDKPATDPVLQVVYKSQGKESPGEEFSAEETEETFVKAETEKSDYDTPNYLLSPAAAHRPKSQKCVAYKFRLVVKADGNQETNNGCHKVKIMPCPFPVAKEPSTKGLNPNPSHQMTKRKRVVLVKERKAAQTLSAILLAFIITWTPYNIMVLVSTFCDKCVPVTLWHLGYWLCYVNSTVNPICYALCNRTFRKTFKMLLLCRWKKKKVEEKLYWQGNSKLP

[20] = target: Tyrosine-protein kinase JAK3 (Homo sapiens) (UniProt P52333); details: Compound concentration 1000.0 nM
[21] = target: Phosphatidylinositol 3-kinase C2 domain-containing subunit gamma (Homo sapiens) (UniProt O75747); details: Compound concentration 1000.0 nM
[22] = test system: Receptor-type tyrosine-protein kinase FLT3 (Homo sapiens), P36888 [D835V]; details: Compound concentration 1000.0 nM
[23] = test system: Phosphatidylinositol 4,5-bisphosphate 3-kinase catalytic subunit alpha isoform (Homo sapiens), P42336 [E545K]; details: Compound concentration 1000.0 nM
Sequence of Phosphatidylinositol 4,5-bisphosphate 3-kinase catalytic subunit alpha isoform (Homo sapiens), P42336 [E545K] (P42336 whole entry E545K, canonical isoform): as the sequence (P42336 whole entry E542K, canonical isoform) above, with K542E, E545K counted along it

[24] = target: GABA-A receptor; anion channel (Rattus norvegicus) (UniProt O09028+P15431+P18506+P18508+P19969+P20236+P23574+P23576+P28471+P28473+P30191+P62813+P63079+P63138+Q91ZM7+Q9ES14); assay: Cl- channel (GABA-gated) Eurofins-Cerep binding assay; type: protein-complex assay; design: ligand concentration 3 nM; details: filed as antagonist, Compound concentration 10.0 uM
[25] = target: Activin receptor type-2A (Homo sapiens) (UniProt P27037); details: Compound concentration 1000.0 nM
[26] = target: Muscle, skeletal receptor tyrosine-protein kinase (Homo sapiens) (UniProt O15146); details: Compound concentration 1000.0 nM
Sequence of Muscle, skeletal receptor tyrosine-protein kinase (Homo sapiens) (O15146 whole entry): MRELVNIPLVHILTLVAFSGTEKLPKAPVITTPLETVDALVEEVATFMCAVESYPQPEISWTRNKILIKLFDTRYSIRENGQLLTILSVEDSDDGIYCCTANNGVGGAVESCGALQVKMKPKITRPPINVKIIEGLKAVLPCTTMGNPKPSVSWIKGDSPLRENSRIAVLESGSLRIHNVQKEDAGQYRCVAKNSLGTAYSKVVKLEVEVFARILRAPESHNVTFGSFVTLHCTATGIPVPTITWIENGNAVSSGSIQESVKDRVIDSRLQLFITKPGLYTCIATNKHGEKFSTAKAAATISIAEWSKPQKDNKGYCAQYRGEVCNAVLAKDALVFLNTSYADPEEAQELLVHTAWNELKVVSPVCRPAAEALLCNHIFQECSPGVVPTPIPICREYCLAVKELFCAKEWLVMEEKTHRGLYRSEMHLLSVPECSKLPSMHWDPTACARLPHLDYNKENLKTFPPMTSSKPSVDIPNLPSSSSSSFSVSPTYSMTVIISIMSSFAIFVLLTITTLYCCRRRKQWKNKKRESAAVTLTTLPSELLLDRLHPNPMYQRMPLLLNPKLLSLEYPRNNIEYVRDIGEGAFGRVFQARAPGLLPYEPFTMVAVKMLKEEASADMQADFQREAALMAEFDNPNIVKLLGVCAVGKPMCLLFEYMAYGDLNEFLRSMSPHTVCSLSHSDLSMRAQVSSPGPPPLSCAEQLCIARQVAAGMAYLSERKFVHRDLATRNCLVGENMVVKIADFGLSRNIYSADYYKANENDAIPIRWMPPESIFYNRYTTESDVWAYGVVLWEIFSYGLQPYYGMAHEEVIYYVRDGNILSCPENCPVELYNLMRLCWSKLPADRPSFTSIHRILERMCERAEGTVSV

[27] = target: Dual specificity mitogen-activated protein kinase kinase 1 (Homo sapiens) (UniProt Q02750); details: Compound concentration 1000.0 nM
[28] = test system: Receptor-type tyrosine-protein kinase FLT3 (Homo sapiens), P36888 [R834Q]; details: Compound concentration 1000.0 nM
[29] = target: Calcium/calmodulin-dependent protein kinase kinase 2 (Homo sapiens) (UniProt Q96RR4); details: Compound concentration 1000.0 nM
[30] = target: Mitogen-activated protein kinase kinase kinase 7 (Homo sapiens) (UniProt O43318); details: Compound concentration 1000.0 nM
[31] = target: Serine/threonine-protein kinase Nek1 (Homo sapiens) (UniProt Q96PY6); details: Compound concentration 1000.0 nM
[32] = target: Serine/threonine-protein kinase Nek5 (Homo sapiens) (UniProt Q6P3R8); details: Compound concentration 1000.0 nM
Sequence of Serine/threonine-protein kinase Nek5 (Homo sapiens) (Q6P3R8 whole entry): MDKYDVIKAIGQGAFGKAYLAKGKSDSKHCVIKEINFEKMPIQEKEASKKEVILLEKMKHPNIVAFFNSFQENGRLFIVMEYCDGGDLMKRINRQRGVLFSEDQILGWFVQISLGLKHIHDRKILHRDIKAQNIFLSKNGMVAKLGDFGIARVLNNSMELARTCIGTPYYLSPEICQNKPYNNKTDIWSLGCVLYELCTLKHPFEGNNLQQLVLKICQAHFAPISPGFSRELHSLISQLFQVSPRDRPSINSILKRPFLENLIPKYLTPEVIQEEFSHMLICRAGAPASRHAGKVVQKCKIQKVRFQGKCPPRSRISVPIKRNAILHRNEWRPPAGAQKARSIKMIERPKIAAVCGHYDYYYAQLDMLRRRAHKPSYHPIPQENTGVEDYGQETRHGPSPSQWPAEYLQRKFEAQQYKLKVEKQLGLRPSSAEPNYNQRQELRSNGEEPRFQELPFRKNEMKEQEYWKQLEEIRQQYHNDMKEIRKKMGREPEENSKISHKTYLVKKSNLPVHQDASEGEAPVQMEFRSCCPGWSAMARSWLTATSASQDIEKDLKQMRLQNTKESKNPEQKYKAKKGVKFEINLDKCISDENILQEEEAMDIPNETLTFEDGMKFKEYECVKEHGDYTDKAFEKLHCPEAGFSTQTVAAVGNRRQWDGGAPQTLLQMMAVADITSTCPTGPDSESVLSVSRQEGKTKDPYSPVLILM

[33] = target: Phosphatidylinositol 3-kinase catalytic subunit type 3 (Homo sapiens) (UniProt Q8NEB9); details: Compound concentration 1000.0 nM
[34] = test system: Epidermal growth factor receptor (Homo sapiens), P00533 [L861Q]; details: Compound concentration 1000.0 nM
[35] = test system: Epidermal growth factor receptor (Homo sapiens), P00533 [T790M]; details: Compound concentration 1000.0 nM

Compound | residual activity [1] | residual activity [2] | residual activity [3] | residual activity [4] | residual activity [5] | residual activity [6] | residual activity [7] | residual activity [8] | residual activity [9] | residual activity [10] | residual activity [11] | residual activity [12] | residual activity [13] | residual activity [14] | residual activity [15] | residual activity [16] | residual activity [17] | residual activity [18] | % Inhibition of Control Specific Binding (Mean n=2) [19] | residual activity [20] | other results
CCCOc1ccc([C@H]2[C@H](C(=O)O)[C@@H](c3ccc4c(c3)OCO4)CN2CC(=O)Nc2c(CC)cccc2CC)cc1 [A-192621] | 81% | 74% | 100% | 82% | 75% | 87% | 91% | 85% | 84% | 97% | 75% | 63% | 91% | 81% | 82% | 93% | 100% | 91% | 10% | 84% | residual activity [21]: 75%; residual activity [22]: 88%; residual activity [23]: 61%; % Inhibition of Control Specific Binding (Mean n=2) [24]: 77.4%; residual activity [25]: 100%; residual activity [26]: 82%; residual activity [27]: 66%; residual activity [28]: 91%; residual activity [29]: 93%; residual activity [30]: 100%; residual activity [31]: 87%; residual activity [32]: 29%; residual activity [33]: 78%; residual activity [34]: 100%; residual activity [35]: 82%
CCCOc1ccc([C@@H]2[C@@H](C(=O)O)[C@H](c3ccc4c(c3)OCO4)CN2CC(=O)Nc2c(CC)cccc2CC)cc1 [A-1806262] | 91% | 91% | 100% | 100% | 81% | 97% | 93% | 100% | 96% | 100% | 87% | 66% | 91% | 80% | 96% | 100% | 90% | 93% | 0.9% | 73% | residual activity [21]: 78%; residual activity [22]: 62%; residual activity [23]: 68%; % Inhibition of Control Specific Binding (Mean n=2) [24]: 60.8%; residual activity [25]: 100%; residual activity [26]: 97%; residual activity [27]: 93%; residual activity [28]: 100%; residual activity [29]: 84%; residual activity [30]: 97%; residual activity [31]: 100%; residual activity [32]: 55%; residual activity [33]: 88%; residual activity [34]: 100%; residual activity [35]: 93%
